Results from patent US20230040021A1 (priority 2019, published 2023).

Key:
[1] = system: herpes gE antigen-specific IFN-γ; details: CpG T1 10 + saponin 5 + gE 5 μg/mouse; FIG. 15
Protocol: Experimental steps: on Day 7 after the immunization of mice, the spleen lymphocytes were prepared according to a conventional method, and the details were as follows: the spleens were taken aseptically by being cut with sterile forceps and scissors, and placed in a 70 μm cell strainer, which was placed in a plate containing 2 ml of pre-chilled 2% FBS (purchased from GIBCO)-PBS; the spleens were ground using a grinding rod, and the spleen cells entered the plate through the meshes to obtain a cell suspension, and then the suspension was filtered by a 40 μm cell strainer (purchased from BD) and put into a 50 ml sterile centrifuge tube by using a Pasteur pipet; it was centrifuged at 500×g at 4° C. for 5 min; the supernatant was discarded, and then 2 ml of 1×erythrocyte disruption agent (purchased from BD) was added to re-suspend the cells, and the resultant was allowed to stand for 5 min at 4° C., protected from light to disrupt the red blood cells; 10 ml of 2% FBS-PBS was added to terminate the erythrocyte disruption reaction; the resultant was centrifuged at 500×g at 4° C. for 5 min, the supernatant was discarded, and then 5 ml of 2% FBS-PBS was added to re-suspend the cells for later use.
C57BL/6(N) mice, female, 5 weeks old, 48 mice, purchased from Shanghai SLRC Laboratory Animal Co. Ltd.
2) QS-21 (CAS: NO. […]

[2] = system: HBsAg antigen-specific IFN-γ; design: species or system C57BL/6(N) mice; details: mouse, in vivo
[3] = system: HBcAg antigen-specific IFN-γ; design: species or system C57BL/6(N) mice; details: mouse, in vivo

Substance	induced production level of gE-specific IFN-γ [1]	immune effect: induced production level of HBsAg-specific IFN-γ [2]	immune effect: induced production level of HBcAg-specific IFN-γ [3]
QS-21 [QS21]	the best effect		
TCCATGACGTTCCTGACGTT (SEQ ID NO: 5) [CpG 1826]		superior to the CpG adjuvants of type A and the CpG adjuvants of type C	superior to the CpG adjuvants of type A and the CpG adjuvants of type C
TCGACGTTCGTCGTTCGTCGTTC (SEQ ID NO: 9) [CpG 684]		superior to the CpG adjuvants of type A and the CpG adjuvants of type C	superior to the CpG adjuvants of type A and the CpG adjuvants of type C
TCGTCGTTTTGTCGTTTTGTCGTT (SEQ ID NO: 4) [CpG 7909]		superior to the CpG adjuvants of type A and the CpG adjuvants of type C	superior to the CpG adjuvants of type A and the CpG adjuvants of type C
TGACTGTGAACGTTCGAGATGA (SEQ ID NO: 3) [CpG 1018]		superior to the CpG adjuvants of type A and the CpG adjuvants of type C	superior to the CpG adjuvants of type A and the CpG adjuvants of type C
TGTCGTCGTCGTTTGTCGTTTGTCGTT (SEQ ID NO: 11) [CPG D2]		lower than those induced by the CpG adjuvants of type A and the CpG adjuvants of type C	lower than those induced by the CpG adjuvants of type A and the CpG adjuvants of type C
